Structures can show the parent of a compound that is named as a salt.
Tests used:
[1] = tested on: human mesenchymal stromal cells (MSCs); assay: Cell viability assay, IncuCyte FLR with Yoyo-1 dye (membrane integrity); type: cell-based; settings: 24 hours pretreatment
Protocol: Cell viability experiments were performed using the IncuCyte FLR (Essen Bioscience). Cells were stained with a cell impermeant cyanine dimer nucleic acid stain (Yoyo-1, Life Technologies). This fluorescent dye was used to measure cell membrane integrity. Pre-confluent human mesenchymal stromal cells (MSCs) were incubated for 24 hours with both the indicated small molecules […]. To kinetically measure MSC membrane integrity, images were acquired every two hours using an IncuCyte FLR live-cell image imaging system.

[2] = tested on: human mesenchymal stem cells; assay: In vitro functional firm adhesion assay of cells (Table 3, coating not stated); type: cell-based; parameters: key to Result, in vitro Firm Adhesion: NA = negative activity result; A = positive activity result; settings: for Firm adhesion, Percent increase: relative to untreated and/or negative control MSCs
Protocol: Cell adhesion experiments were performed using Bioflux1000 (FluxionBio), allowing accurate control over shear flow. A special 48-well plate was used, in which a microfluidic channel (350 μm×70 μm) connects each pair of adjacent wells (termed inlet and outlet wells). The plate was placed under vacuum and the channels were coated from the inlet with recombinant human E-selectin (5 μg/mL) or ICAM-1 (5 μg/mL) and incubated at 37° C. for 1 h. Prior to introducing the cells into the channel, a wash with PBS−/− from the outlet well was performed for 5 min. Compound-pretreated MSCs were introduced into the channel, followed by attachment period of 2 minutes (no flow applied during the attachment period). Attached cells were then subjected to increasing shear flow, ranging from 0.25 dynes/cm^2 for up to 10 dynes/cm^2. Images were acquired using the Montage software and cell adhesion to the coated channels following subjection to shear flow was examined. See also disclosure elsewhere herein.
1. Obtain preferred channel coating (protein/cell monolayer). 2. Prepare cell suspension (same concentrations detailed above for different cell types). 3. Add 50 μl of cell suspension to outlet well. 4. Introduce cells into channel by applying shear force of 2 dynes/cm^2 (cells should be observed within 10-15 sec flowing from outlet to inlet). 5. Once cells are observed in the channel, stop the flow and allow the introduced cells to sit for different time periods ranging from 30 seconds to 5 minutes. 6. Following this settling period, apply shear force starting from 0.5 dynes/cm^2 up to 10 dynes/cm^2 and acquire videos using stream acquisition. 7. Cell quantification is then performed using the Montage software—percentage of cells adhered, rolled or washed away after applying shear flow should be quantified.

[3] = tested on: MSC secretome; assay: Secretomic analysis of small molecule-primed MSCs (Bio-plex immunoassays); type: cell-based, human; settings: for MSC secretome changes, result in words: 3 μM for 24 hours
Protocol: A single batch of human MSCs (#7F3915) was used for all of these experiments. Cells were seeded at 25,000 cells/well in a 12-well microplate. The following day, cells were treated with the selected compound (3 μM) or DMSO (as control). After 24 hours of treatment, secretomic samples were collected, centrifuged and frozen. Secretomes of MSCs were assayed for cytokines, chemokines and growth factors using Bio-plex human 21-plex and 27-plex immunoassay kits (Bio-Rad), according to the manufacturer's instructions. The 27-plex and 21-plex panels consisted of the following analytes: IL-1alpha, IL-1beta, IL-1Ralpha, IL-2, IL-3, IL-4, IL-5, IL-6, IL-7, IL-8, IL-9, IL-10, IL12p40, IL12p70, IL-13, IL-15, IL-17, IL-18, CTACK, GROalpha, HGF, IFN-alpha2, LIF, MCP-1, MCP-3, MIF, MIG, beta-NGF, SCF, SCGF-beta, SDF-1alpha, TNF-alpha, TNF-beta, TRAIL, Eotaxin, FGF-2, G-CSF, GM-CSF, IFN-gamma, IP-10, MIP-1alpha, PDGF-bb, RANTES and VEGF. A standard range of 0.2 to 3,200 pg/mL was used. Samples and controls were run in triplicate, standards and blanks in duplicate. Error bars represent standard deviation (3 independent experiments).
Analysis of the secretome of MSCs was conducted upon pretreatment of MSCs with compound 1929 for 24 h. In this experiment, the MSCs were from donor 318006 (BM318006 P7). The mean and standard deviation values of secretome analytes were measured in pg/ml.

SMILES | MSC viability [1] | Result, in vitro Firm Adhesion ([2]; pretreated huMSCs) | Firm adhesion, Percent increase ([2]; hydrochloride) [%] | MSC secretome changes, result in words [3] | Mean of [IFN-g] ([3]; 3 μM, 24 h, MSC donor 318006) [pg/mL] | Mean of [IL-6] ([3]; 3 μM, 24 h, MSC donor 318006) [pg/mL] | Mean of [IL-8] ([3]; 3 μM, 24 h, MSC donor 318006) [pg/mL] | Mean of [IL-12p70] ([3]; 3 μM, 24 h, MSC donor 318006) [pg/mL] | Mean of [MCP-1] ([3]; 3 μM, 24 h, MSC donor 318006) [pg/mL] | Mean of [VEGF] ([3]; 3 μM, 24 h, MSC donor 318006) [pg/mL] | IL-6 level secreted by MSC ([3]; 3 micromolar for 24 hours) | Fold change of analyte VEGF upon pretreatment (vs. vehicle control) ([3]; MSC secretome) | Firm adhesion, Percent increase [2] [%]
Cn1cc(C2=C(c3c4n(c5ccccc35)CCC(CN)C4)C(=O)NC2=O)c2ccccc21 (stereo not drawn) [Compound 1929, 3-(8-aminomethyl-6,7,8,9-tetrahydro-pyrido[1,2-a]indol-10-yl)-4-(1-methyl-1H-indol-3-yl)-pyrrole-2,5-dione hydrochloride] | did not modify MSC viability | A | 88 | did not substantially alter | 14.9 | 333.5 | 31.1 | 13.9 | 22.5 | 486.8 | downregulation | 0.75 +/− 0.26 | 
CCc1c2c(nc3ccc(OC(=O)N4CCC(N5CCCCC5)CC4)cc13)-c1cc3c(c(=O)n1C2)COC(=O)[C@]3(O)CC [Compound 1927, reference compound] | did not modify MSC viability |  |  | no secretome changes |  |  |  |  |  |  |  |  | 22
